Experimental data taken from article PMC7069944, “Amino acid levels determine metabolism and CYP450 function of hepatocytes and hepatoma cell lines” (Nature Communications, 2020).
“And” between values parts separate entries of the source, which are not always exact repeats. Equal entries are not always repeated.

Assays:
HC6X = experiment: Repeated-exposure DILI training compounds, resazurin conversion, HC6X
In short: (§1)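 Hepatotoxicity prediction used a miniaturized 384-well differentiation setup, scoring viability through resazurin reduction relative to Cmax.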

HepG2 = experiment: Repeated-exposure DILI training compounds, resazurin conversion, HepG2
In short: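 Viability by resazurin conversion, correlated with Cmax, was assessed after drug exposure in 384-well cultures of differentiated PSCs and of HepG2 (40,000 cells/well). Dosing began 8 h post-attachment, with untreated wells as negative control.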

HC3X = experiment: Repeated-exposure DILI training compounds, resazurin conversion, HC3X; details: for Resazurin conversion, repeated exposure (Supplementary Figure 7D): HC3X AAGLY D40
In short: as §1

HLC = experiment: Repeated-exposure DILI training compounds, resazurin conversion, HLC
In short: as §1

Cc1ccc(C(=O)c2cc(O)c(O)c([N+](=O)[O-])c2)cc1 [tolcapone]
Resazurin conversion, repeated exposure (Supplementary Figure 7D) (HC6X; HC6X AAGLY D40, 10 uM): 103.7 and 134.6 and 82 and 87 and 83.1 and 109.6
Resazurin conversion, repeated exposure (Supplementary Figure 7D) (HC6X; HC6X AAGLY D40, 30 uM): 98.2 and 113.2 and 82.9 and 88.4 and 81.1 and 97.8
Resazurin conversion, repeated exposure (Supplementary Figure 7D) (HC6X; HC6X AAGLY D40, 100 uM): 47.9 and 57 and 49.7 and 51.8 and 54.9 and 72.8
Resazurin conversion, repeated exposure (Supplementary Figure 7D) (HC6X; HC6X AAGLY D40, 300 uM): 39.5 and 40.5 and 38.8 and 59.9 and 40.3 and 47.8
Resazurin conversion, repeated exposure (Supplementary Figure 7D) (HC6X; HC6X AAGLY D40, 500 uM): 34.3 and 39.2 and 30.7 and 33.5 and 40.3 and 34.2
Resazurin conversion, repeated exposure (Supplementary Figure 7D) (HC6X; HC6X AAGLY D40, 1000 uM): 31.1 and 26.7 and 26.3 and 27.6 and 26.5
Resazurin conversion, repeated exposure (Supplementary Figure 7D) (HC6X; HC6X AAGLY D40, 2000 uM): 22.1 and 28.3 and 22.3 and 22.5 and 23 and 22.4
Resazurin conversion, repeated exposure (Supplementary Figure 7D) (HC6X; HC6X AAGLY D40, 4000 uM): 17.8 and 17.3 and 16.6 and 16.3 and 16.4 and 16.8
Resazurin conversion, repeated exposure (Supplementary Figure 7D) (HC6X; HC6X AAGLY D40 Remove dox, 30 uM): 108.6 and 121.2 and 103 and 112.9 and 119.8 and 93.5
Resazurin conversion, repeated exposure (Supplementary Figure 7D) (HC6X; HC6X AAGLY D40 Remove dox, 50 uM): 77 and 153.8 and 144.7 and 105.2 and 81.9 and 88.4
Resazurin conversion, repeated exposure (Supplementary Figure 7D) (HC6X; HC6X AAGLY D40 Remove dox, 1000 uM): 78.8 and 118 and 78.9 and 118.9 and 81.8 and 105.5
Resazurin conversion, repeated exposure (Supplementary Figure 7D) (HepG2; HepG2 AAGLY D30, 10 uM): 106.6 and 108.2 and 105.6 and 120.1 and 84.5 and 128.6
Resazurin conversion, repeated exposure (Supplementary Figure 7D) (HepG2; HepG2 AAGLY D30, 30 uM): 144.6 and 128.4 and 104.2 and 136.2 and 93.4 and 133.6
Resazurin conversion, repeated exposure (Supplementary Figure 7D) (HepG2; HepG2 AAGLY D30, 50 uM): 126.9 and 134.9 and 97.9 and 148.8 and 105 and 143.9
Resazurin conversion, repeated exposure (Supplementary Figure 7D) (HepG2; HepG2 AAGLY D30, 300 uM): 44.5 and 61.6 and 62 and 66.8 and 60.8 and 73.6
Resazurin conversion, repeated exposure (Supplementary Figure 7D) (HepG2; HepG2 AAGLY D30, 500 uM): 48.7 and 42.4 and 39.6 and 41.5 and 43.3 and 45.5
Resazurin conversion, repeated exposure (Supplementary Figure 7D) (HepG2; HepG2 AAGLY D30, 1000 uM): 27.5 and 27.3 and 26.8 and 27.1 and 27.8
Resazurin conversion, repeated exposure (Supplementary Figure 7D) (HepG2; HepG2 AAGLY D30, 2000 uM): 22.7 and 22.5 and 22.2 and 22.1 and 22.4
Resazurin conversion, repeated exposure (Supplementary Figure 7D) (HepG2; HepG2 AAGLY D30, 4000 uM): 15.8 and 14.5 and 14.4 and 13.5 and 14.3
Resazurin conversion, repeated exposure (Supplementary Figure 7D) (HepG2; HepG2 CTL D7, 10 uM): 87 and 84.9 and 85.9 and 110.7 and 87.4 and 87.2
Resazurin conversion, repeated exposure (Supplementary Figure 7D) (HepG2; HepG2 CTL D7, 30 uM): 113.4 and 88.9 and 98.2 and 86.8 and 100.5 and 86.2
Resazurin conversion, repeated exposure (Supplementary Figure 7D) (HepG2; HepG2 CTL D7, 300 uM): 8.3 and 8 and 7.5 and 8.8 and 8.1
Resazurin conversion, repeated exposure (Supplementary Figure 7D) (HepG2; HepG2 CTL D7, 500 uM): 7.3 and 6.8 and 6.5 and 6.6 and 6.7
Resazurin conversion, repeated exposure (Supplementary Figure 7D) (HepG2; HepG2 CTL D7, 1000 uM): 6.4 and 5.9 and 5.8 and 5.6
Resazurin conversion, repeated exposure (Supplementary Figure 7D) (HepG2; HepG2 CTL D7, 2000 uM): 4.8 and 4.4 and 4
Resazurin conversion, repeated exposure (Supplementary Figure 7D) (HepG2; HepG2 CTL D7, 4000 uM): 2.3 and 2.5 and 2.2 and 2.1 and 2 and 2.6
Resazurin conversion, repeated exposure (Supplementary Figure 7D) (HC3X; 10 uM): 139.4 and 142.8 and 150.5 and 156.1 and 95.1 and 108.2
Resazurin conversion, repeated exposure (Supplementary Figure 7D) (HC3X; 30 uM): 50.8 and 58.9 and 61.5 and 64.6 and 88.9 and 76.4
Resazurin conversion, repeated exposure (Supplementary Figure 7D) (HC3X; 300 uM): 8.4 and 7.7 and 8 and 9.1 and 9.2
Resazurin conversion, repeated exposure (Supplementary Figure 7D) (HC3X; 500 uM): 11.6 and 15.4 and 8.7 and 13.6 and 11.8 and 12.2
Resazurin conversion, repeated exposure (Supplementary Figure 7D) (HC3X; 1000 uM): 6.7 and 6.6 and 6.4 and 6.5 and 7.5 and 9.6
Resazurin conversion, repeated exposure (Supplementary Figure 7D) (HC3X; 2000 uM): 4.2 and 4.1 and 4.6
Resazurin conversion, repeated exposure (Supplementary Figure 7D) (HC3X; 4000 uM): 3.1 and 3.3 and 3 and 3.2 and 3.4
IC50/Cmax (HC3X; human): 0.83
Resazurin conversion, repeated exposure (Supplementary Figure 7D) (HLC; HLC AAGLY D40, 10 uM): 89.6 and 98.4 and 93.9 and 112.4 and 126.3 and 99.4
Resazurin conversion, repeated exposure (Supplementary Figure 7D) (HLC; HLC AAGLY D40, 100 uM): 143.7 and 88 and 126.1 and 79.6 and 153.9 and 130.7
Resazurin conversion, repeated exposure (Supplementary Figure 7D) (HLC; HLC AAGLY D40, 500 uM): 86.2 and 108.3 and 80.7 and 126.4 and 91.4 and 111.1
Resazurin conversion, repeated exposure (Supplementary Figure 7D) (HLC; HLC AAGLY D40, 1000 uM): 80.1 and 96.8 and 72.2 and 70.6 and 94.2 and 112.4
Resazurin conversion, repeated exposure (Supplementary Figure 7D) (HLC; HLC LDM D40, 10 uM): 110.5 and 107.3 and 79 and 94.2 and 118.4 and 85.4
Resazurin conversion, repeated exposure (Supplementary Figure 7D) (HLC; HLC LDM D40, 50 uM): 117.3 and 84.9 and 88.5 and 107.2 and 94.9 and 106
Resazurin conversion, repeated exposure (Supplementary Figure 7D) (HLC; HLC LDM D40, 100 uM): 136.2 and 145.5 and 129 and 115.8 and 107.1 and 144.8
Resazurin conversion, repeated exposure (Supplementary Figure 7D) (HLC; HLC LDM D40, 500 uM): 60.4 and 57.9 and 62.5 and 68.7 and 54 and 73.8
Resazurin conversion, repeated exposure (Supplementary Figure 7D) (HLC; HLC LDM D40, 4000 uM): 25.6 and 16.8 and 16.1 and 16 and 13.5 and 19.7
